Laboratory results as given in ChEMBL document CHEMBL3804818 (J Med Chem, 2016).
pKd: −log10 of the molar value.

Columns and labels:
[1] = molecular target: Endoplasmin (Homo sapiens, UniProt P14625)
[2] = molecular target: Heat shock protein HSP 90-alpha (Homo sapiens, UniProt P07900)

Endoplasmin, sequence (P14625 whole entry): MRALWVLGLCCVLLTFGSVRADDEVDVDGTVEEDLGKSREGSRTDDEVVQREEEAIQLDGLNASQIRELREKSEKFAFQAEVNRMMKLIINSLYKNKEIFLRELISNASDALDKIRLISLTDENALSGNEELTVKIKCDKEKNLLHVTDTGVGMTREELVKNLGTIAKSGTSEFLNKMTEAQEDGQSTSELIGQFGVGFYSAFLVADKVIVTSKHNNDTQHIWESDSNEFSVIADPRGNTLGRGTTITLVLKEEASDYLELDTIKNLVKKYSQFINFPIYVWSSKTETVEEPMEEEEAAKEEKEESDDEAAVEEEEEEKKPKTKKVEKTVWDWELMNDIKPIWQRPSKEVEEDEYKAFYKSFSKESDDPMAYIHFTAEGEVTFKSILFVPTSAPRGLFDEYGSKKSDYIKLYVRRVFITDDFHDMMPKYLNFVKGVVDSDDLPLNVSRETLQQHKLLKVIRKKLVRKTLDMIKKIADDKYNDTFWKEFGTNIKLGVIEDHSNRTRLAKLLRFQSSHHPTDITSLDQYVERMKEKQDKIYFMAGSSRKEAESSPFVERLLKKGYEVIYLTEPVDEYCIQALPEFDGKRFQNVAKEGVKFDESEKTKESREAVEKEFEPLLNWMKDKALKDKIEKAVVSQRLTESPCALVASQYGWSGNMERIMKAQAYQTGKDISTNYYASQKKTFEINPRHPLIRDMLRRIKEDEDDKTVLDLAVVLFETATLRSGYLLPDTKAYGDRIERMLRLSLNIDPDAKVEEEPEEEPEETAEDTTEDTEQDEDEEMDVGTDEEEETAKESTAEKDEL

## COC(=O)c1c(O)cc(O)c(Cl)c1CCc1nccn1Cc1ccsc1
[1]
  pKd: 5.67
[2]
  pKd: 5.18

## COC(=O)c1c(O)cc(O)c(Cl)c1CCc1nccn1Cc1ccc(C)cc1
[1]
  pKd: 6.14
[2]
  pKd: 4.60

## CCOc1ccccc1Cn1ccnc1CCc1c(Cl)c(O)cc(O)c1C(=O)OC
[1]
  pKd: 6.70
[2]
  pKd: 5.09

## COC(=O)c1c(O)cc(O)c(Cl)c1CCc1nccn1Cc1ccccc1C
[1]
  pKd: 5.52
[2]
  pKd: 4.17

## COC(=O)c1c(O)cc(O)c(Cl)c1CCc1nccn1Cc1ccccc1C(F)(F)F
[1]
  pKd: 5.82
[2]
  pKd: 4.71

## COC(=O)c1c(O)cc(O)c(Cl)c1CCc1nccn1Cc1ccco1
[1]
  pKd: 6.26
[2]
  pKd: 5.23

## COC(=O)c1c(O)cc(O)c(Cl)c1CCc1nccn1Cc1cncnc1
[1]
  pKd: 5.04
[2]
  pKd: 5.00

## C#Cc1ccc(Cn2ccnc2CCc2c(Cl)c(O)cc(O)c2C(=O)OC)cc1
[1]
  pKd: 5.85
[2]
  pKd: 4.80

## C=Cc1ccsc1Cn1ccnc1CCc1c(Cl)c(O)cc(O)c1C(=O)OC
[1]
  pKd: 6.12
[2]
  pKd: 4.44

## CCc1ccsc1Cn1ccnc1CCc1c(Cl)c(O)cc(O)c1C(=O)OC
[1]
  pKd: 6.14
[2]
  pKd: 5.16

## COC(=O)c1c(O)cc(O)c(Cl)c1CCc1nccn1Cc1ccc(F)cc1
[1]
  pKd: 5.49

## COC(=O)c1c(O)cc(O)c(Cl)c1CCc1nccn1Cc1ccc(C)s1
[1]
  pKd: 6.17
[2]
  pKd: 5.29

## COC(=O)c1c(O)cc(O)c(Cl)c1CCc1nccn1Cc1cccs1
[1]
  pKd: 6.33
[2]
  pKd: 5.41

## COC(=O)c1c(O)cc(O)c(Cl)c1CCc1nccn1Cc1ccc(OC)cc1
[1]
  pKd: 5.16
[2]
  pKd: < 3.82

## COC(=O)c1c(O)cc(O)c(Cl)c1CCc1nccn1Cc1ccc(Cl)s1
[1]
  pKd: 6.03
[2]
  pKd: 4.46

## COC(=O)c1c(O)cc(O)c(Cl)c1CCc1nccn1Cc1ccc(C#N)cc1
[1]
  pKd: 5.33
[2]
  pKd: 4.74

## COC(=O)c1c(O)cc(O)c(Cl)c1CCc1nccn1Cc1ccc(C)o1
[1]
  pKd: 6.19

## COC(=O)c1c(O)cc(O)c(Cl)c1CCc1nccn1Cc1cccnc1
[1]
  pKd: 5.39

## COC(=O)c1c(O)cc(O)c(Cl)c1CCc1nccn1Cc1ccc(Cl)cc1
[1]
  pKd: 6.09

## COC(=O)c1c(O)cc(O)c(Cl)c1CCc1nccn1Cc1ccno1
[1]
  pKd: 6.40
[2]
  pKd: 6.09

## CCCOc1ccccc1Cn1ccnc1CCc1c(Cl)c(O)cc(O)c1C(=O)OC
[1]
  pKd: 6.60
[2]
  pKd: 5.64

## COC(=O)c1c(O)cc(O)c(Cl)c1CCc1nccn1Cc1ccccc1Br
[1]
  pKd: 5.80

## CCc1ccccc1Cn1ccnc1CCc1c(Cl)c(O)cc(O)c1C(=O)OC
[1]
  pKd: 6.09
[2]
  pKd: 4.41

## COC(=O)c1c(O)cc(O)c(Cl)c1CCc1nccn1Cc1sccc1Cl
[1]
  pKd: 6.12
[2]
  pKd: 5.50

## COC(=O)c1c(O)cc(O)c(Cl)c1CCc1nccn1Cc1cccc(F)c1
[1]
  pKd: 5.82
[2]
  pKd: 5.02

## COC(=O)c1c(O)cc(O)c(Cl)c1CCc1nccn1Cc1ccccc1OC
[1]
  pKd: 5.89
[2]
  pKd: 4.27

## COC(=O)c1c(O)cc(O)c(Cl)c1CCc1nccn1Cc1cc(Cl)cs1
[1]
  pKd: 6.17
[2]
  pKd: 5.74

## COC(=O)c1c(O)cc(O)c(Cl)c1CCc1nccn1Cc1ccccc1Cl
[1]
  pKd: 5.86
[2]
  pKd: 5.07

## COC(=O)c1c(O)cc(O)c(Cl)c1CCc1nccn1Cc1ccccc1OC(C)C
[1]
  pKd: 7.05
[2]
  pKd: 6.62

## COC(=O)c1c(O)cc(O)c(Cl)c1CCc1nccn1Cc1oc(C)cc1C
[1]
  pKd: 6.46
[2]
  pKd: 5.04

## COC(=O)c1c(O)cc(O)c(Cl)c1CCc1nccn1Cc1ccccn1
[1]
  pKd: 5.31
[2]
  pKd: 5.00

## COC(=O)c1c(O)cc(O)c(Cl)c1CCc1nccn1Cc1ccccc1F
[1]
  pKd: 5.87
[2]
  pKd: 4.94

## C=Cc1ccoc1Cn1ccnc1CCc1c(Cl)c(O)cc(O)c1C(=O)OC
[1]
  pKd: 5.63

## COC(=O)c1c(O)cc(O)c(Cl)c1CCc1nccn1Cc1ccoc1
[1]
  pKd: 5.82
[2]
  pKd: 5.42

## COC(=O)c1c(O)cc(O)c(Cl)c1CCc1nccn1Cc1nccs1
[1]
  pKd: 5.60
[2]
  pKd: 4.80

## COC(=O)c1c(O)cc(O)c(Cl)c1CCc1nccn1Cc1ccc(C)cc1OC
[1]
  pKd: 5.63
[2]
  pKd: 4.14
